This passage reports IC50 results from US20260125370A1, “SULFOXIMINE COMPOUNDS AS HISTONE DEACETYLASE 6 INHIBITOR, AND PHARMACEUTICAL COMPOSITION COMPRISING THE SAME” (CHONG KUN DANG PHARMACEUTICAL CORP., priority 2022, published 2026).

A word on the IC50: it is the midpoint of a concentration-inhibition curve.

For assay [1], the target named is T1, human recombinant HDAC6 (Homo sapiens, UniProt Q9UBN7).
T1 construct: purchased Calbiochem 382180
T1 sequence (Q9UBN7 1-1215): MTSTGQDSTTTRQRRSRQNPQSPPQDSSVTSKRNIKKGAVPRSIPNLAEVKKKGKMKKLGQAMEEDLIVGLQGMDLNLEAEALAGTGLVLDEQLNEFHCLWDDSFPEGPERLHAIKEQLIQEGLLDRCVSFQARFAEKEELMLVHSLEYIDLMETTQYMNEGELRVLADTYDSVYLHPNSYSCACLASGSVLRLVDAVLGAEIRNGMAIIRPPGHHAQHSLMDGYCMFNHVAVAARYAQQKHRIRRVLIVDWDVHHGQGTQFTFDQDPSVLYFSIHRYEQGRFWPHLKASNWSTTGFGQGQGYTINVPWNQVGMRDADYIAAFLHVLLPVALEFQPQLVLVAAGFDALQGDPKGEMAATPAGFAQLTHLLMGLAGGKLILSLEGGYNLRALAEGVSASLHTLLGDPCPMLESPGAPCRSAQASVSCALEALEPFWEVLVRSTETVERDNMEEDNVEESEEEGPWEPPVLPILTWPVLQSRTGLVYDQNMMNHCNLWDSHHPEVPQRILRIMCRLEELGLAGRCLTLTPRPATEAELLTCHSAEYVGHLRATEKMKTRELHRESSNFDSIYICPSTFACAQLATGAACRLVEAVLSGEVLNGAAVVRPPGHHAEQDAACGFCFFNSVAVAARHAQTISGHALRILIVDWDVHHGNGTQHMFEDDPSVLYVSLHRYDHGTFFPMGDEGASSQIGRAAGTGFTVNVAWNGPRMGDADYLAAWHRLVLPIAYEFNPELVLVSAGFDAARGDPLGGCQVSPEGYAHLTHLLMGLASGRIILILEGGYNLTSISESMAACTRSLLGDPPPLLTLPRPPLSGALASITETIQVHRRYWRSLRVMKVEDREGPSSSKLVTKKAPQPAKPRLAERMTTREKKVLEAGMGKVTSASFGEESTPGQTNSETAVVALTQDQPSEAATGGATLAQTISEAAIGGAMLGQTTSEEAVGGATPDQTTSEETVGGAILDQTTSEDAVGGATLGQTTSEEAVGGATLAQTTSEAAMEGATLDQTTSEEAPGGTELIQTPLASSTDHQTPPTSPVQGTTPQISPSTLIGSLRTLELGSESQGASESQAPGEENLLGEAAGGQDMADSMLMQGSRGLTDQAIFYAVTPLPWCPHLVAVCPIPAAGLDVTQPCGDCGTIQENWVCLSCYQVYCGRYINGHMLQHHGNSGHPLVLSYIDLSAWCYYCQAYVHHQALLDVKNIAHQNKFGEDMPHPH
The assay is described as follows: HDAC6 enzyme activity inhibition (fluorimetric, in vitro). The settings on record: samples at 0.1, 1, 10, 100 and 1000 nM. The assay is classed as biochemical. The method, then:
(§1) A HDAC enzyme inhibitory capacity of a test material was measured by using HDAC1 Fluorimetric Drug Discovery Assay Kit (Enzolifesciences: BML-AK511) and HDAC6 human recombinant (Calbiochem: 382180). For a HDAC1 assay, samples were treated at a concentration of 100, 1000 and 10000 nM. For a HDAC6 assay, samples were treated at a concentration of 0.1, 1, 10, 100 and 1000 nM.
(§2) For the test on the HDAC1 enzyme activity, human recombinant HDAC1 (BML-SE456) was used as a zymogen and Fluor de Lys®-SIRT1 (BNL-KI177) was used as a substrate. A 5-fold dilution of the compound was divided into a 96-well plate, after which 0.3 μg of the enzyme and […] of the substrate were inserted into each well and subjected to reaction at 37° C. for 60 minutes, such that Fluor de Lys® Developer II (BML-K1176) was inserted thereinto and subjected to reaction for 30 minutes and finished. After that, a fluorescence value (Ex 360, Em 460) was measured with a multi-plate reader (FlexStation 3, Molecular Device). An experiment on HDAC6 enzyme was conducted in accordance with the same protocol as in the HDAC1 enzyme activity test method by using human recombinant HDAC6 (382180) of Calbiochem Inc. For final result values, each IC50 value was calculated with GraphPad Prism 4.0 program.

For assay [2], the target named is T2, human recombinant HDAC1 (Homo sapiens, UniProt Q13547).
T2 construct: purchased Enzolifesciences BML-SE456
T2 sequence (Q13547 whole entry): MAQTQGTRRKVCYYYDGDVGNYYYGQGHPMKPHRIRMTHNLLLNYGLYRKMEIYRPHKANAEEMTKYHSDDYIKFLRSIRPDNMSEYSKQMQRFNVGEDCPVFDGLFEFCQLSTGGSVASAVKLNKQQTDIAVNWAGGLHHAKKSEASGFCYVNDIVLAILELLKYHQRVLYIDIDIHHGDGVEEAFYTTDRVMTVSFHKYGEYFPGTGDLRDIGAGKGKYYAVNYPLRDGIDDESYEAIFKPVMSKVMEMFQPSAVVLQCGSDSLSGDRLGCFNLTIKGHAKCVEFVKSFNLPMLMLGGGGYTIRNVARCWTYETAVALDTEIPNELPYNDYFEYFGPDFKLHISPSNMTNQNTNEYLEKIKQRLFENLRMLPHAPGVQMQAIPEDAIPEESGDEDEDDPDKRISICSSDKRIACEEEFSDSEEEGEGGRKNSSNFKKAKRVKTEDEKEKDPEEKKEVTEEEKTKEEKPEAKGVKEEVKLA
The assay is described as follows: HDAC1 enzyme activity inhibition (HDAC1 Fluorimetric Drug Discovery Assay Kit, in vitro). The assay is classed as biochemical. To be noted: samples at 100, 1000 and 10000 nM. The method, then: as §1, §2

`N=S1(=O)CC(N2CC3(CN(C(=O)N(Cc4ccc(-c5nnc(C(F)F)o5)cc4F)c4ccccc4)C3)C2)C1` (centres unmarked) [Compound 83, N-[[4-[5-(difluoromethyl)-1,3,4-oxadiazol-2-yl]-2-fluoro-phenyl]methyl]-6-(1-imino-1-oxo-thiethan-3-yl)-N-phenyl-2,6-diazaspiro[3.3]heptan-2-carboxamide]: the IC50 in assay [1] was 71.3 nM; in assay [2], over 10000 nM. On the same counts, the results for `N=S1(=O)CCN(C(=O)N(Cc2ccc(-c3nnc(C(F)F)o3)cc2F)c2ccccc2F)CC1` [Compound 56, N-(4-(5-(difluoromethyl)-1,3,4-oxadiazol-2-yl)-2-fluorobenzyl)-N-(2-fluorophenyl)-1-iminothiomorpholin-4-carboxamide 1-oxide] are 72.6 nM and over 10000 nM. On the same counts, the results for `CS(=N)(=O)C1CN(C(=O)N(Cc2ccc(-c3nnc(C(F)F)o3)cn2)c2cccc(F)c2)C1` (centres unmarked) [Compound 90, N-[[5-[5-(difluoromethyl)-1,3,4-oxadiazol-2-yl]-2-pyridyl]methyl]-N-(3-fluorophenyl)-3-(methylsulfonimidoyl)azetidin-1-carboxamide] are 47.3 nM and over 10000 nM. Turning to `N=S1(=O)CC2(CN(C(=O)N(Cc3ccc(-c4nnc(C(F)F)o4)cc3F)c3ccccc3)C2)C1` [Compound 92, N-[[4-[5-(difluoromethyl)-1,3,4-oxadiazol-2-yl]-2-fluoro-phenyl]methyl]-2-imino-2-oxo-N-phenyl-2lambda6-thia-6-azaspiro[3.3]heptan-6-carboxamide], the IC50 in assay [1] is 93.9 nM; in assay [2] it was over 10000 nM. The corresponding values for `N=S1(=O)CCN(C(=O)N(Cc2ccc(-c3nnc(C(F)F)o3)cn2)c2ccc(F)c(F)c2)CC1` [Compound 7, N-((5-(5-(difluoromethyl)-1,3,4-oxadiazol-2-yl)pyridin-2-yl)methyl)-N-(3,4-difluorophenyl)-1-iminothiomorpholin-4-carboxamide 1-oxide] are 40.9 nM and over 10000 nM.

In the case of `N=S1(=O)CCN(C(=O)N(Cc2ncc(-c3nnc(C(F)F)o3)cc2F)c2cc(F)ccc2F)CC1` [Compound 46, N-((5-(5-(difluoromethyl)-1,3,4-oxadiazol-2-yl)-3-fluoropyridin-2-yl)methyl)-N-(2,5-difluorophenyl)-1-iminothiomorpholin-4-carboxamide 1-oxide], the IC50 is 65.9 nM in assay [1] and over 10000 nM in assay [2]. The corresponding values for `N=S1(=O)CCN(C(=O)N(Cc2ccc(-c3nnc(C(F)F)o3)cc2F)c2ccc3c(c2)CCC3)CC1` [Compound 28, N-(4-(5-(difluoromethyl)-1,3,4-oxadiazol-2-y1)-2-fluorobenzyl)-N-(2,3-dihydro-1H-inden-5-yl)-1-iminothiomorpholin-4-carboxamide 1-oxide] are 92.2 nM and over 10000 nM.

As to `N=S1(=O)CCC(NC(=O)N(Cc2ccc(-c3nnc(C(F)F)o3)cc2F)c2ccccc2)CC1` (centres unmarked) [Compound 59, 1-(4-(5-(difluoromethyl)-1,3,4-oxadiazol-2-yl)-2-fluorobenzyl)-3-(1-imino-1-oxidotetrahydro-2H-thiopyran-4-yl)-1-phenylurea], the IC50 in assay [1] was 116 nM; in assay [2] it was over 10000 nM. On the same counts, the results for `O=C(N=S1(=O)CCN(C(=O)N(Cc2ccc(-c3nnc(C(F)F)o3)cc2F)c2ccccc2)CC1)OCc1ccccc1` [Compound 4, Benzyl (4-((4-(5-(difluoromethyl)-1,3,4-oxadiazol-2-yl)-2-fluorobenzyl)(phenyl)carbamoyl)-1-oxidothiomorpholin-1-ylidene)carbamate] are 390 nM and over 10000 nM. In the case of `N=S1(=O)CCN(C(=O)N(Cc2ccc(-c3nnc(C(F)F)o3)cc2F)c2ccc(Cl)c(Cl)c2)CC1` [Compound 42, N-(3,4-dichlorophenyl)-N-(4-(5-(difluoromethyl)-1,3,4-oxadiazol-2-yl)-2-fluorobenzyl)-1-iminothiomorpholin-4-carboxamide 1-oxide], the half-maximal inhibitory concentration (IC50) is 37.7 nM in assay [1] and over 10000 nM in assay [2]. The corresponding values for `N=S1(=O)CCN(C(=O)N(Cc2ccc(-c3nnc(C(F)F)o3)cc2F)c2ccc(SC(F)(F)F)cc2)CC1` [Compound 21, N-(4-(5-(difluoromethyl)-1,3,4-oxadiazol-2-y1)-2-fluorobenzyl)-1-imino-N-(4-((trifluoromethyl)thio)phenyl)thiomorpholin-4-carboxamide 1-oxide] are 294 nM and over 10000 nM. On the same counts, the results for `Cn1ccc2cc(N(Cc3ccc(-c4nnc(C(F)F)o4)cc3F)C(=O)N3CCS(=N)(=O)CC3)ccc21` [Compound 10, N-(4-(5-(difluoromethyl)-1,3,4-oxadiazol-2-yl)-2-fluorobenzyl)-1-imino-N-(1-methyl-1H-indol-5-yl)thiomorpholin-4-carboxamide 1-oxide] are 108 nM and over 10000 nM.

For the compound `N=S1(=O)CC(N2C[C@@H]3C[C@H]2CN3c2c(N(Cc3ccc(-c4nnc(C(F)F)o4)cn3)c3ccccc3)c(=O)c2=O)C1` (stereo partly drawn) [Compound 87, 3-[N-[[5-[5-(difluoromethyl)-1,3,4-oxadiazol-2-yl]-2-pyridyl]methyl]anilino]-4-[(1S,4S)-5-(1-imino-1-oxo-thiethane-3-yl)-2,5-diazabicyclo[2.2.1]heptan-2-yl]cyclobut-3-en-1,2-dione], the half-maximal inhibitory concentration (IC50) in assay [1] is 37.4 nM; in assay [2], over 10000 nM.

On to `CC1CN(C(=O)N(Cc2ccc(-c3nnc(C(F)F)o3)cc2F)c2ccccc2)CCS1(=N)=O` (centres unmarked) [Compound 82, N-[[4-[5-(difluoromethyl)-1,3,4-oxadiazol-2-yl]-2-fluoro-phenyl]methyl]-1-imino-2-methyl-1-oxo-N-phenyl-1,4-thiazinan-4-carboxamide], for which the figures for the concentration for half-maximal inhibition (IC50) in assay [1] and in assay [2] were 93.1 nM and over 10000 nM, respectively.

With `N=S1(=O)CCC(C(=O)N(Cc2ccc(-c3nnc(C(F)F)o3)cc2F)c2ccccc2)CC1` (centres unmarked) [Compound 8, N-(4-(5-(difluoromethyl)-1,3,4-oxadiazol-2-yl)-2-fluorobenzyl)-1-imino-N-phenyltetrahydro-2H-thiopyran-4-carboxamide 1-oxide], the IC50 in assay [1] was 194 nM; in assay [2] it was over 10000 nM. On the same counts, the results for `Cn1ccc2cc(N(Cc3ccc(-c4nnc(C(F)F)o4)cn3)C(=O)N3CCS(=N)(=O)CC3)ccc21` [Compound 14, N-((5-(5-(difluoromethyl)-1,3,4-oxadiazol-2-yl)pyridin-2-yl)methyl)-1-imino-N-(1-methyl-1H-indol-5-yl)thiomorpholin-4-carboxamide 1-oxide] are 94.4 nM and over 10000 nM. The corresponding values for `CC(=O)N=S1(=O)CCN(C(=O)N(Cc2ccc(-c3nnc(C(F)F)o3)cn2)c2ccccc2)CC1` [Compound 52, 1-(acetylimino)-N-((5-(5-(difluoromethyl)-1,3,4-oxadiazol-2-yl)pyridin-2-yl)methyl)-N-phenylthiomorpholin-4-carboxamide 1-oxide] are 46.9 nM and over 10000 nM. For `N=S1(=O)CC(N2C[C@@H]3C[C@H]2CN3c2c(N(Cc3ncc(-c4nnc(C(F)F)o4)cc3F)c3ccccc3)c(=O)c2=O)C1` (stereo partly drawn) [Compound 88, 3-[N-[[5-[5-(difluoromethyl)-1.3.4-oxadiazol-2-yl]-3-fluoro-2-pyridyl]methyl]anilino]-4-[(1S,4S)-5-(1-imino-1-oxo-thiethan-3-yl)-2,5-diazabicyclo[2.2.1]heptan-2-yl]cyclobut-3-en-1,2-dione], in assay [2], the IC50 was over 10000 nM.
